# Experimental data published in PubChem BioAssay AID179 (DTP/NCI, 2004).
# The source made the active and inactive calls.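 The calls were made as follows: active = compounds giving half or more protection of infected cells from virus-caused growth loss, again on retest; inactive = the rest.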 Where a SMILES comes first, the peptide text is derived from it. The star is where a group is joined. Boc = CC(C)(C)OC(=O)*
# Test system: CEM cells HIV-1 protection, formazan growth assay
# Experiment: NCI AIDS Antiviral Assay
# Details: for IC50: measured here: growth of uninfected CEM cells
# In short: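 Steps: treat uninfected and HIV-1-infected human CEM cells at five drug levels; quantify growth by soluble formazan; retest any compound reaching 50% protection; classify actives from the retest.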
Structure (SMILES),EC50,IC50,outcome
O=C1COc2ccc([N+](=O)[O-])cc2C(=O)C1,> 200 µM,> 200 µM,–
O=C(O)C1CCCCC1c1c2ccc(=O)cc-2oc2cc(O)ccc12 (stereo unspecified),> 200 µM,10.7 µM,–
CCCCCCCCCCCCCCCCOC1OC(CS(=O)(=O)O)C(O)C(O)C1O (stereo unspecified),> 138 µM,40.7 µM,–
C=C(Cl)CSC(=S)N1CCOCC1,–,–,inactive
CCOc1cc(C2=NNc3n[nH]c(=S)n3N2)ccc1O,151 µM,331 µM,–
O=c1[nH]c2ccccc2c(=O)n1/N=C\c1ccc([N+](=O)[O-])cc1,> 200 µM,> 200 µM,–
CNc1nc2n(CCO)c(-c3ccccc3)c(-c3ccccc3)nc-2c(=O)n1,> 50.1 µM,26.3 µM,–
Oc1ccc(-c2cc(-c3cc(-c4ccc(O)cc4)no3)on2)cc1,> 200 µM,6.31 µM,–
Cc1ccc(C2NC(=S)N3C(c4ccc(C)cc4)NC(=S)N23)cc1 (stereo unspecified),> 200 µM,3.39 µM,–
COC(=O)[C@@H]1C[C@@H]2c3ccccc3N(S(=O)(=O)c3ccccc3)[C@@H]2N1C(=O)OC,> 200 µM,> 200 µM,–
O=C(/C=C/c1ccco1)c1cccc(C(=O)/C=C/c2ccco2)n1,> 200 µM,9.55 µM,–
CC12SC(C)(c3c[se]cc31)C1C(=O)N(c3ccccc3)C(=O)C12 (stereo unspecified),–,–,inactive
CC12CCC(C(Br)C1=O)C2(C)CS(=O)(=O)O (stereo unspecified),> 200 µM,> 200 µM,–
O=c1[nH]c(=O)n(COCc2ccccc2)c2ccc(Br)cc12,> 200 µM,> 200 µM,–
CS(=O)(=O)OCCN1CCC2(CC1)SSC1(CCN(CCOS(C)(=O)=O)CC1)S2,> 200 µM,28.2 µM,–
C=CCNC(=O)N(CCCC(NC(C)=O)C(=O)NCc1ccccc1)Cc1ccccc1 (stereo unspecified),> 575 µM,> 575 µM,–
C/C1=C/C(O)C/C(C)=C\C(O)C(=O)/C=C/C2C(CC1)C2(C)C (stereo unspecified),> 200 µM,> 200 µM,–
CC(=O)OC12c3ccccc3C1CCCC21OCCCO1 (stereo unspecified),> 200 µM,> 200 µM,–
Oc1cc2ccccc2cc1OC(F)(F)c1nc2ccccc2o1,> 200 µM,12.3 µM,–
C/C(=N/N=C(\[O-])c1ccncc1)C(F)(F)F.C/C(=N\N=C(/[O-])c1ccncc1)C(F)(F)F.[Cu+2],> 200 µM,18.2 µM,–
Nn1c(N=Nc2c(O)[nH]c3ccccc23)n[nH]c1=S,> 33.9 µM,> 33.9 µM,–
O=CC(=O)C(C(=O)O)[N+](=O)[O-] (stereo unspecified),> 200 µM,> 200 µM,–

Structure (SMILES),EC50,IC50,outcome
Cc1c(Cl)ccc2c1NC(=O)C2(O)CC(=O)c1cccc2ccccc12 (stereo unspecified),> 97.7 µM,> 97.7 µM,–
COc1ccccc1/C=C/C(=O)N1CCC2(CC1)C(=O)N(C)CN2c1ccccc1,> 200 µM,51.3 µM,–
O=C1c2ccccc2C(Br)(Br)c2ccccc21,–,–,inactive
c1ccc2c(c1)SC1=C(SC(=C3SC4=C(S3)Sc3ccccc3S4)S1)S2,> 100 µM,> 100 µM,–
O=C1C(=C2C(=O)c3ccccc3[N+]2=O)N([O-])c2ccccc21,–,–,inactive
CN1N=C(c2ccncc2)OC1c1ccc(Cl)cc1Cl (stereo unspecified),> 200 µM,85.1 µM,–
COc1ccc(N=NC(=O)NC(CC(C)C)C(=O)NCC(=O)O)cc1 (stereo unspecified),> 200 µM,3.72 µM,–
CCOc1ccc(Nc2nc(C)c(C(=O)/C=C/c3ccc(Cl)cc3Cl)s2)cc1,> 22.9 µM,20 µM,–
CCOC(=O)c1cn(CC)c2ccc3ccsc3c2c1=O,–,–,inactive
Nc1nnc(-c2ccccc2S)o1,> 63.1 µM,26.9 µM,–
c1ccc(-c2nc3cc4c(cc3n3cccc23)oc2ccccc24)cc1,> 100 µM,85.1 µM,–
COc1cccc2c1C(=O)c1c(O)c3c(c(O)c1C2=O)C[C@@](O)(C(=O)CO)C[C@@H]3OC1CC(N)C(OC)C(C)O1 (stereo partly specified),> 0.2 µM,0.0195 µM,–
COc1ccccc1N=Nc1c(S(=O)(=O)O)cc2cc(NC(=O)Nc3ccc4c(O)c(N=Nc5ccc(S(=O)(=O)O)cc5C)c(S(=O)(=O)O)cc4c3)ccc2c1O,–,–,active
OCC(O)COc1c(Cl)cc(Cl)cc1Cl (stereo unspecified),> 251 µM,> 251 µM,–
CC1(C)C(=O)/C=C\C(=O)C(C)(C)C(=O)/C=C\C(=O)C(C)(C)C(=O)/C=C\C(=O)C(C)(C)C(=O)/C=C\C1=O,–,–,inactive
C=CCC1(OC(C)=O)C2OC(=O)C1(O)OCC2O (stereo unspecified),> 200 µM,> 200 µM,–
Cc1ccc(-c2n[nH]c(=O)n2NC(=O)c2ccccc2C(=O)O)cc1,–,–,inactive
COc1cc(OC)c2c(c1)C(=O)c1cc(C)cc(O)c1C2=O,–,–,inactive
CC(=O)N(CN1C(=O)CCC1C(=O)O)c1cccc(O)c1 (stereo unspecified),–,–,inactive
CCn1c(=O)c(N=O)c(N)n(CCCOC)c1=O,> 200 µM,> 200 µM,–
CCOC(=O)C1=C(C)NC2=C(C(=O)N(c3ccccc3)C2c2ccccc2)C1c1ccccc1 (stereo unspecified),> 41.7 µM,> 41.7 µM,–
CN(C)c1nc(N(C)C)nc(N2C(=O)CCC2=O)n1,> 200 µM,> 200 µM,–

Structure (SMILES),EC50,IC50,outcome
Nn1c(SCc2nc3ccccc3[nH]2)nnc1-c1ccccc1,> 200 µM,> 200 µM,–
O=C(CSc1nnc(-c2ccc(Cl)cc2)s1)Nc1nccs1,> 200 µM,> 200 µM,–
C=CCCC(=O)C(Cc1ccccc1OC)C(=O)OC (stereo unspecified),> 129 µM,> 129 µM,–
O=C1NC(N2CCOCC2)=N/C1=C\c1ccccc1O,> 200 µM,> 200 µM,–
CCOC(=O)C[C@@H](C)[C@]1(C(=O)OC)CCCC1=O,> 708 µM,> 708 µM,–
c1ccc(N=C2SC(c3ccccc3)(c3ccccc3)c3ccccc32)cc1,> 200 µM,> 200 µM,–
COc1ccc(C2Oc3cc(OC)cc(O)c3C(=O)C2C2C(=O)c3c(O)cc(OC)cc3OC2c2ccc(O)cc2)cc1 (stereo unspecified),> 200 µM,37.2 µM,–
Cc1cc(-n2c(C)ccc2C)no1,> 200 µM,> 200 µM,–
CO[C@@]12[C@@H]3N[C@@H]3CN1C1=C(C(=O)C(NCCc3ccccn3)=C(C)C1=O)[C@@H]2COC(N)=O,> 200 µM,2 µM,–
CCOC(=O)/C=C1\Nc2ccccc2C(c2ccccc2)=NC1OC(C)=O (stereo unspecified),> 20 µM,> 20 µM,–
COc1ccc(CC(=O)C2C(=O)N(C)c3ccccc32)cc1OC (stereo unspecified),> 200 µM,44.7 µM,–
COc1ccc(/C=N/Nc2nnc3c(n2)[nH]c2ccc(Br)cc23)cc1,> 200 µM,> 200 µM,–
CC1(CC2=C(Br)CCCC2)C(=O)CC=C1O (stereo unspecified),> 200 µM,174 µM,–
Fc1c(F)c(F)c(CSc2nc3ccccc3[nH]2)c(F)c1F,> 200 µM,145 µM,–
O=c1c2ccccc2n2n1Cc1ccccc1C2,> 200 µM,102 µM,–
COc1ccc(/C=C2/SC(c3ccccc3)N(NC(=O)CCCCCCCCC(=O)NN3C(=O)/C(=C\c4ccc(OC)c(OC)c4)SC3c3ccccc3)C2=O)cc1OC (stereo unspecified),> 200 µM,91.2 µM,–
CCOc1cc2c(cc1O)/C(=N\N)C[C@@H]1[C@@H]2CC[C@]2(C)[C@@H](O)CC[C@@H]12,> 2 µM,0.209 µM,–
O=C1N(c2ccccc2)SN2C3C=CC(C4CC43)N12 (stereo unspecified),> 182 µM,> 182 µM,–
CCOC(=O)/C=C/n1c2ccccc2c(=O)c2ccccc21,> 9.33 µM,> 9.33 µM,–
O=C1C=CC2C3C(=O)N(c4ccccc4)C(=O)C3C1N2Cc1ccccc1 (stereo unspecified),> 1.17 µM,> 1.17 µM,–
CCS(=O)c1c2cc(OC)ccc2nc2ccc(OC)cc12 (stereo unspecified),> 200 µM,1.38 µM,–
Cc1cccc2c1[nH]c1[nH]c(=O)[nH]c(=O)c12,> 200 µM,151 µM,–

Structure (SMILES),EC50,IC50,outcome
COc1cc2c(cc1Oc1ccc(OC)c3c1CC1c4c(cc(OC)c(OC)c4-3)CCN1C)CC1c3c(cc(OC)c(OC)c3-2)CCN1C (stereo unspecified),–,–,inactive
CCOC(=O)C1C/C(C)=C(/C)SCCCS1 (stereo unspecified),> 200 µM,45.7 µM,–
COc1cc2c(c(C3C(=O)N(C)c4ccc(Br)cc43)c1OC)OCO2 (stereo unspecified),> 200 µM,> 200 µM,–
Nc1nc2c(ncn2C2CCC(CO)OC2)c(=O)[nH]1 (stereo unspecified),145 µM,> 200 µM,–
O=C(c1ccc(Cl)cc1)N1CC1,> 200 µM,81.3 µM,–
Cc1cc(N(CCC#N)CCC#N)ccc1N=Nc1cc(Cl)ccc1Cl,> 3.72 µM,2 µM,–
COC(=O)c1ccc(CSc2ccccc2C(=O)OC)cc1,> 22.9 µM,19.1 µM,–
CCc1ccc2c(c1)CC1(C2)Cc2cc3c(cc2C1)C(=O)CC3 (stereo unspecified),> 200 µM,12.6 µM,–
CC1c2cc(c3c(c2O)CN([C@@H](C)C2CCCCC2)CO3)C(C)c2cc(c3c(c2O)CN([C@@H](C)C2CCCCC2)CO3)C(C)c2cc(c3c(c2O)CN([C@@H](C)C2CCCCC2)CO3)C(C)c2cc1c1c(c2O)CN([C@@H](C)C2CCCCC2)CO1 (stereo partly specified),> 100 µM,1.74 µM,–
COC(=O)C(Cc1c[nH]c2ccccc12)NC(=O)C(Cc1c[nH]c2ccccc12)NC(=O)C(Cc1c[nH]c2ccccc12)NC(=O)OC(C)(C)C (stereo not drawn) (Boc-Trp-Trp-Trp-OMe; configuration not given here),> 200 µM,29.5 µM,–
CC(=O)N(/N=C\c1ccc([N+](=O)[O-])cc1)c1ccccc1,> 126 µM,> 126 µM,–
O=c1[nH]nc(NCc2ccccc2)c2nnn(Cc3ccccc3)c12,> 200 µM,> 200 µM,–
COC(=O)C1Cc2c(OC)ccc(OC)c2CC(C(=O)OC)C1=O (stereo unspecified),> 200 µM,182 µM,–
CC1(C2(C)OC(=O)c3ccccc32)OC(=O)c2ccccc21 (stereo unspecified),> 200 µM,> 200 µM,–
O=C1NC(=O)C(=Cc2ccc3c(c2)OCO3)C(=O)N1,> 14.5 µM,> 14.5 µM,–
O=C(c1nc2ccc([N+](=O)[O-])cc2[nH]c1=O)C(O)c1ccc([N+](=O)[O-])cc1 (stereo unspecified),58.9 µM,110 µM,–
O=C(NCCc1c[nH]c2ccccc12)C1CCCCC1,> 200 µM,67.6 µM,–
COc1ccccc1NC(=S)NNC(=O)c1cc(-c2ccccc2)nc2ccccc12,> 200 µM,11.5 µM,–
O=C(Nc1ccc(C(=O)O)c(O)c1)c1ccc(C(=O)Nc2ccc(C(=O)O)c(O)c2)cc1,> 200 µM,89.1 µM,–
Cc1ccc(C)c(NC(=O)CC2Sc3ccccc3NC2=O)c1 (stereo unspecified),> 30.2 µM,> 30.2 µM,–
